Consider ten compounds from paper PMC6749418, “SAR by Space: Enriching Hit Sets from the Chemical Space” (Molecules, 2019).

For one test, the system named is T1, bromodomain 1 of BRD4.
T1 construct: made in house
The test is described as follows: Thermal shift assay (TSA) with recombinant, truncated, His-tagged bromodomain 1 of BRD4. The test is classed as binding. To be noted: 1% DMSO, 4 μM protein; for ΔTm (°C) at 10 μM: compound at 10 μM; for ΔTm (°C) at 20 μM: compound at 20 μM; for ΔTm (°C) at 40 μM: compound at 40 μM. How it is done:
The compounds were synthesized according to the standard protocols for typical parallel synthesis transformations, including amide/sulfonamide coupling, reductive amination, urea synthesis, arylation/alkylation, etc. The synthesis was completed in a three-week period and all the 32 compounds could actually be synthesized. The products obtained were subjected to thermal shift assay (TSA) using recombinant, truncated, His-tagged bromodomain 1 of BRD4 [28] at 40, 20, and 10 μM (Figure 4). The hit selection criteria followed those described in our previous publication:|ΔTm| ≥ |ΔTm,av| + 3|σ(ΔTm)|(1) |ΔTm| ≥ 2|σ(Tm,DMSO)|(2) where ΔTm—thermal shift caused by the compound; ΔTm,av—mean thermal shift value within the plate; σ(ΔTm)—standard deviation of the thermal shift values within the plate; σ(Tm,DMSO)—standard deviation of the melting temperature values obtained for the control samples.
All tested compounds were obtained from Enamine Ltd. (Kyiv, Ukraine). Stock solutions of the tested compounds were prepared in 100% DMSO and were stored at −20 °C until use. The bromodomain 1 of BRD4 was expressed using pNIC28-Bsa4 plasmid vector with an insert representing domain 1 of BRD4 (44–168 AA, sequence entry O60885.1 in UniProtKB Database), N-terminus His6-tag and 16-amino acid linker.
All thermal shift assay (TSA) experiments with BRD4 protein were performed using ViiA™7 real-time PCR System equipped with 384-well heat block (Applied Biosystems, Waltham, MA, USA). General TSA methodology was adopted from the literature and experimentally modified in order to optimize conditions for measuring BRD4 melting temperature shifts upon interaction with small molecules. The optimal buffer composition for the TSA procedure was determined as described previously. Buffer consisting of 50 mM Phosphate-Na, 100 mM NaCl, pH = 7.5 was selected for BRD4 screening in this study. Purified BRD4 protein was pre-mixed with SYPRO Orange dye (Thermo Fischer Scientific, Cat. S6650, 5000x stock, Waltham, MA, USA) to prepare a master mix at 4 μM protein and 6× dye concentrations. Tested compounds were added to the protein-dye master mix at 40, 20, or 10 μM at 1% final DMSO concentration and incubated at 4 °C for 1 h in MicroAmp® optical 384-well reaction plates (ThermoFisher, Cat. 4309849, Waltham, MA, USA) sealed with optical sealing film (ThermalSeal RT2, Excel Scientific, Cat. TS-RT2, Victorville, CA, USA). The volumes of all reaction mixtures were 10 µL ([…]). The reaction plates were then kept at ambient temperature (22–24 °C) for an additional 15 min to ensure protein-compound interactions. Thermal scanning was performed by raising the temperature to 40 °C at 1.6 °C/min without signal detection followed by 40 °C to 90 °C temperature ramp at 0.05 °C/s with constant fluorescence intensity reading at 1-sec intervals using EX470/EM623 nm filter set.
Primary screening of the whole test set of 49 compounds was carried out in singletons. The raw data of dye fluorescence intensity change upon protein melt were exported using the ViiA7 RUO software (Applied Biosystems/Thermo Fischer Scientific). Further data visualization, curve fitting, melting temperature calculations on the raw fluorescence data were performed using custom-made Microsoft Excel scripts. The peak of the first derivative for the fluorescence curve was used to define melting temperature (Tm). Averaged Tm values for the control wells containing only the protein, dye and 1% DMSO were used as a reference point to determine melting temperature shifts (ΔTm).

The next test deals with T2, BRD4 (BD1+BD2) (Homo sapiens, UniProt O60885).
T2 construct: BRD4 (BD1+BD2) TR-FRET assay kit from BPS Bioscience; purchased BPS Bioscience
The test is described as follows: BRD4 (BD1+BD2) TR-FRET assay, IC50 measurement. The test is classed as biochemical. The conditions noted are these: average from three independent experiments. Here is the method: Dose-response curves were built for these compounds, and for 5 of them, IC50 values were determined in TR-FRET assay as an average from three independent experiments (Table 1). Comparing the resulting hit molecules with the corresponding initial queries, one can see considerable structural differences. […] The relatively high FTrees similarity explains why they were not missed in the REAL Space search: The molecules still have very similar pharmacophoric properties in a similar arrangement. […] This is exemplary shown in Figure 7 for compound 20 and its respective query molecule 15. The shift of the nitrogen atom to the β position of the pyridine ring, as well as the different linker length, led to a completely flipped binding mode. It is also important to stress that the starting points of this study which led to the hits (compounds 19–22) had no significant activity against BRD4 in the functional (TR-FRET) assay; they were identified only in the binding assay (TSA).
All TR-FRET assays and IC50 measurements were performed using BRD4 (BD1+BD2) TR-FRET assay kit from BPS Bioscience (www.bpsbioscience.com) following the standard procedure.
In general terms: Time-resolved FRET reads energy transfer from a long-lived donor to a nearby acceptor.

The next test relates to BRD4. The conditions noted are these: cited from earlier work.
Setting [1] is: investigational BRD4 inhibitors, Figure 1.

Read-outs that look alike come from different tables or passages of the source.

In general, IC50 refers to the concentration at which inhibition is half-maximal. `CC(C)(C)c1nnc2ccc(NCC(C)(C)c3cccnc3)nn12` [C00006]: in the test on bromodomain 1 of BRD4, the “ΔTm (°C) at 10 μM” value came out at 0.34 ± 0.13 °C, the “ΔTm (°C) at 20 μM” value was determined as 0.98 ± 0.22 °C and the “ΔTm (°C) at 40 μM” value came out at 1.33 ± 0.17 °C. For the same compound, the IC50 against BRD4 (BD1+BD2) turned out to be 44.6 µM.
In the case of `CCS(=O)(=O)Nc1ccc(Oc2ccc(F)cc2F)c(-c2cn(C)c(=O)c3[nH]ccc23)c1` [mivebresib, Mivebresib], the IC50 with BRD4 (setting [1]) is 0.001 to 0.002 µM.
On to `COc1nnc2ccc(N3CCC(c4ccc(OCCN5CCN(C)C(=O)[C@H]5C)cc4)CC3)nn12` [AZD5153], for which the IC50 in the test with BRD4 (setting [1]) was 0.005 µM.
On to `CC1(C)C(=O)Nc2ccc(C(=O)Nc3cc(Cl)c(O)cc3F)cc21` [C00002], for which, in the test on bromodomain 1 of BRD4, the “ΔTm (°C) at 10 μM” value came to 0.31 ± 0.05 °C, the “ΔTm (°C) at 20 μM” value came out at 0.39 ± 0.08 °C and the “ΔTm (°C) at 40 μM” value turned out to be 0.71 ± 0.01 °C. Besides, the IC50 against BRD4 (BD1+BD2) was 10.7 µM.
In the case of `CC(C)(CNc1ccc2nnc(C(F)(F)F)n2n1)c1cccnc1` [C00007], in the test on bromodomain 1 of BRD4, the “ΔTm (°C) at 10 μM” value was determined as 0.34 ± 0.19 °C, the “ΔTm (°C) at 20 μM” value worked out at 0.78 ± 0.14 °C and the “ΔTm (°C) at 40 μM” value was 1.56 ± 0.05 °C. For the same compound, half-maximal inhibition on BRD4 (BD1+BD2) (IC50) required 68.2 µM.
On to `Cc1noc2c1-c1ccccc1C(c1ccc(Cl)cc1)=N[C@H]2CC(N)=O` [CPI-0610], for which the IC50 with BRD4 (setting [1]) is 0.018 µM.
Regarding `O=C1Nc2ccc(NS(=O)(=O)C3CCCCC3)cc2C12CCC2` [compound 31], the IC50 in the test on BRD4 (known BRD4 inhibitors, Figure 6) is less than 0.15 µM.
For the compound `O=C1CCc2cc(NC(=O)Nc3ccc(C(F)(F)F)cc3)ccc2N1` [compound 32], the “inhibition at 10 μM” value in the test on BRD4 (10 μM, known BRD4 inhibitors, Figure 6) is reported as “up to 92%”.
As for `CC1CC(=O)N(C)c2ccc(NC(=O)NCc3nc(N(C)C)no3)cc21` (stereo not shown) [C00004], in the test with bromodomain 1 of BRD4, the “ΔTm (°C) at 10 μM” value amounted to 0.30 ± 0.10 °C, the “ΔTm (°C) at 20 μM” value stood at 0.72 ± 0.41 °C and the “ΔTm (°C) at 40 μM” value was 1.52 ± 0.59 °C. The compound also returned an IC50 against BRD4 (BD1+BD2) of 26.4 µM.
Regarding `CCC1Oc2cc(C(C)NC(=O)Cc3c(C)nc4[nH][nH]c(=O)c4c3C)ccc2NC1=O` (stereo not shown) [C00009], in the test on bromodomain 1 of BRD4, the “ΔTm (°C) at 10 μM” value was found to be 0.29 ± 0.01 °C, the “ΔTm (°C) at 20 μM” value is 0.44 ± 0.06 °C and the “ΔTm (°C) at 40 μM” value came out at 0.53 ± 0.25 °C. Moreover, the IC50 at BRD4 (BD1+BD2) is 141 µM.
